Results taken from patent US20250327074A1 (SHAOXING INSTITUTE, ZHEJIANG UNIVERSITY, priority 2024, published 2025).

Test system: TCG codon, mammalian cells
Experiment: TCG codon recoding efficiency of all amino acids (Table 1)
Format: cell-based
Conditions: TCG codon recoding of the unnatural amino acid with the aaRS and mutation of the same table line; class symbols
Excerpt: Specific details are shown in Table 1 below, where “wt” represents the wild-type aminoacyl-tRNA synthetase, “mutation sites” indicate the positions and types of mutations related to specific unnatural amino acid binding on the wild-type aminoacyl-tRNA synthetase, and “unnatural amino acid” represents the unnatural amino acid corresponding to the mutated aminoacyl-tRNA synthetase. In the unnatural amino acid encoding efficiency, “+” indicates a recoding efficiency greater than 40%, “++” greater than 60%, and “+++” greater than 80%.
Accordingly, this application compiles all amino acids reported in the literature that are recognized by orthogonal aminoacyl-tRNA synthetases in mammalian systems and evaluates their recoding efficiency using the TCG codon as an example.

SMILES	Recoding rate (%)
CCCCC=Cc1ccc(C[C@H](N)C(=O)O)cc1 [compound 314]	++ (“++” greater than 60%)
CCCCC=Cc1ccc(C[C@H](N)C(=O)O)cc1 [compound 315]	+++ (“+++” greater than 80%)
N[C@@H](Cc1ccc(C#CCCCBr)cc1)C(=O)O [compound 316]	++ (“++” greater than 60%)
N[C@@H](Cc1ccc(C#CCCCCCBr)cc1)C(=O)O [compound 317]	+ (“+” indicates a recoding efficiency greater than 40%)
N[C@@H](Cc1ccc(C#CCc2ccccc2)cc1)C(=O)O [compound 318]	+++ (“+++” greater than 80%)
N[C@@H](Cc1ccc(C#CCCCc2ccccc2)cc1)C(=O)O [compound 320]	++ (“++” greater than 60%)
N[C@@H](Cc1ccc(C=CCCc2ccc3ccccc3c2)cc1)C(=O)O [compound 321]	++ (“++” greater than 60%)
N[C@@H](Cc1ccc(C=CCCc2ccc3c(c2)CCC3)cc1)C(=O)O [compound 322]	++ (“++” greater than 60%)
C#Cc1cc(C[C@H](N)C(=O)O)ccc1OS(=O)(=O)F [compound 324]	++ (“++” greater than 60%)
C#CCn1cc(C[C@H](N)C(=O)O)c2ccccc21 [compound 326]	++ (“++” greater than 60%)
N[C@@H](Cc1ccc(O)c(I)c1)C(=O)O [compound 334]	+++ (“+++” greater than 80%)
N[C@@H](Cc1ccc(C(=O)CF)cc1)C(=O)O [compound 338]	++ (“++” greater than 60%)
N[C@@H](Cc1ccc(C(=O)c2cccc(F)c2)cc1)C(=O)O [compound 340]	++ (“++” greater than 60%)
N[C@@H](Cc1ccc(C(=O)c2cccc(Cl)c2)cc1)C(=O)O [compound 341]	++ (“++” greater than 60%)
N[C@@H](Cc1ccc(C(=O)c2ccc(F)cc2)cc1)C(=O)O [compound 342]	++ (“++” greater than 60%)
N[C@@H](Cc1ccc(C(=O)c2ccc(Cl)cc2)cc1)C(=O)O [compound 343]	++ (“++” greater than 60%)
N[C@@H](Cc1ccc(C(=O)c2ccc(Br)cc2)cc1)C(=O)O [compound 344]	++ (“++” greater than 60%)
N[C@@H](Cc1ccc(C(=O)c2ccc(C(F)(F)F)cc2)cc1)C(=O)O [compound 345]	++ (“++” greater than 60%)
N[C@@H](CCc1cc(=O)oc2cc(O)ccc12)C(=O)O [compound 347]	++ (“++” greater than 60%)
[N-]=[N+]=NCCOc1ccc(C[C@H](N)C(=O)O)cc1 [compound 348]	++ (“++” greater than 60%)
[N-]=[N+]=NCCC(=O)Nc1ccc(C[C@H](N)C(=O)O)cc1 [compound 350]	+++ (“+++” greater than 80%)
C#CCCC(=O)Nc1ccc(C[C@H](N)C(=O)O)cc1 [compound 351]	+++ (“+++” greater than 80%)
C#CCC(=O)Nc1ccc(C[C@H](N)C(=O)O)cc1 [compound 352]	+++ (“+++” greater than 80%)
C=CCCC(=O)Nc1ccc(C[C@H](N)C(=O)O)cc1 [compound 353]	+++ (“+++” greater than 80%)
C=CCC(=O)Nc1ccc(C[C@H](N)C(=O)O)cc1 [compound 354]	+++ (“+++” greater than 80%)

SMILES	Recoding rate (%)
N[C@@H](Cc1ccc(NC(=O)CF)cc1)C(=O)O [compound 355]	+++ (“+++” greater than 80%)
N[C@@H](Cc1ccc(NC(=O)CCl)cc1)C(=O)O [compound 356]	+++ (“+++” greater than 80%)
N[C@@H](Cc1ccc(CC(=O)O)cc1)C(=O)O [compound 357]	++ (“++” greater than 60%)
N[C@@H](Cc1ccc(C(=O)CF)cc1)C(=O)O [compound 358]	+++ (“+++” greater than 80%)
N[C@@H](Cc1ccc(OCCCl)cc1)C(=O)O [compound 364]	++ (“++” greater than 60%)
N[C@@H](Cc1ccc([N+](=O)[O-])cc1)C(=O)O [compound 367]	+++ (“+++” greater than 80%)
N#Cc1ccc(C[C@H](N)C(=O)O)cc1 [compound 368]	+++ (“+++” greater than 80%)
N[C@@H](CCCNC(=O)NCc1ccccc1[N+](=O)[O-])C(=O)O [compound 375]	++ (“++” greater than 60%)
CCCCCC[C@H](N)C(=O)O [compound 376]	++ (“++” greater than 60%)
CC(=O)CCCSC[C@H](N)C(=O)O [compound 377]	++ (“++” greater than 60%)
C=CCCCCSC[C@H](N)C(=O)O [compound 378]	++ (“++” greater than 60%)
CCCCCCSC[C@H](N)C(=O)O [compound 379]	++ (“++” greater than 60%)
CCCCSC[C@H](N)C(=O)O [compound 380]	++ (“++” greater than 60%)
CCCCCCCCSC[C@H](N)C(=O)O [compound 384]	++ (“++” greater than 60%)
C#CCCCSC[C@H](N)C(=O)O [compound 385]	++ (“++” greater than 60%)
[N-]=[N+]=NCCCSC[C@H](N)C(=O)O [compound 387]	++ (“++” greater than 60%)
[N-]=[N+]=NCCCCSC[C@H](N)C(=O)O [compound 388]	++ (“++” greater than 60%)
[N-]=[N+]=NCCCCCSC[C@H](N)C(=O)O [compound 389]	++ (“++” greater than 60%)
CC(=O)c1ccc2cc(NC[C@H](N)C(=O)O)ccc2c1 [compound 391]	++ (“++” greater than 60%)
N[C@@H](CNc1ccc2ccccc2c1)C(=O)O [compound 392]	++ (“++” greater than 60%)
CCSCCCC[C@H](N)C(=O)O [compound 393]	++ (“++” greater than 60%)
N[C@@H](CCCS)C(=O)O [compound 394]	++ (“++” greater than 60%)
N[C@@H](CCCCS)C(=O)O [compound 395]	++ (“++” greater than 60%)
N[C@@H](CSCc1ccccc1[N+](=O)[O-])C(=O)O [compound 401]	+++ (“+++” greater than 80%)

Same assay, conditions: TCG codon recoding of the unnatural amino acid with the aaRS and mutation of the same table line; numeric values

SMILES	Recoding rate (%)
N[C@@H](Cc1ccc(O)c(O)c1)C(=O)O [compound 323]	48
C=Cn1cc(C[C@H](N)C(=O)O)c2ccccc21 [compound 325]	59
COc1ccc2c(C[C@H](N)C(=O)O)c[nH]c2c1 [compound 327]	80
N[C@@H](Cc1ccc(Br)cc1)C(=O)O [compound 328]	51
N[C@@H](Cc1cccc(I)c1)C(=O)O [compound 329]	56
N#Cc1ccc(C[C@H](N)C(=O)O)cc1 [compound 330]	45
N[C@@H](Cc1ccc(I)cc1)C(=O)O [compound 331]	43
COc1ccc(C[C@H](N)C(=O)O)cc1 [compound 332]	73
N[C@@H](Cc1ccc(OS(=O)(=O)O)cc1)C(=O)O [compound 335]	85
N[C@@H](Cc1ccc(OCCBr)cc1)C(=O)O [compound 337]	60
N[C@@H](Cc1ccc(C(=O)c2ccccc2)cc1)C(=O)O [compound 339]	68
N[C@@H](Cc1ccc(C(=O)c2ccccc2)cc1)C(=O)O [compound 346]	74
[N-]=[N+]=NCC(=O)Nc1ccc(C[C@H](N)C(=O)O)cc1 [compound 349]	84
CC(=O)c1ccc(C[C@H](N)C(=O)O)cc1 [compound 359]	78
[N-]=[N+]=Nc1ccc(C[C@H](N)C(=O)O)cc1 [compound 360]	79
Nc1cc(C[C@H](N)C(=O)O)ccc1O [compound 361]	50
N[C@@H](Cc1ccc(B(O)O)cc1)C(=O)O [compound 362]	66
C#CCOc1ccc(C[C@H](N)C(=O)O)cc1 [compound 363]	78

SMILES	Recoding rate (%)
COc1ccc(C[C@H](N)C(=O)O)cc1 [compound 365]	89
N[C@@H](Cc1ccc(Br)cc1)C(=O)O [compound 366]	63
COc1ccc(C[C@H](N)C(=O)O)cc1 [compound 369]	84
N[C@@H](Cc1ccc(I)cc1)C(=O)O [compound 370]	64
N[C@@H](Cc1ccc(O)c(I)c1)C(=O)O [compound 371]	73
N[C@@H](Cc1ccc(OS(=O)(=O)F)cc1)C(=O)O [compound 372]	70
N[C@@H](Cc1ccc(OS(=O)(=O)F)cc1)C(=O)O [compound 373]	68
COc1ccc([N+](=O)[O-])c2c1CCN2C(=O)CC[C@H](N)C(=O)O [compound 374]	43
CCCCCSC[C@H](N)C(=O)O [compound 381]	83
CCCCCCSC[C@H](N)C(=O)O [compound 382]	87
CCCCCCCSC[C@H](N)C(=O)O [compound 383]	74
C#CCCCCSC[C@H](N)C(=O)O [compound 386]	77
CN(C)c1cccc2c(S(=O)(=O)NC[C@H](N)C(=O)O)cccc12 [compound 390]	73
CCCCCC[C@H](N)C(=O)O [compound 396]	88
CCCCCCC[C@H](N)C(=O)O [compound 397]	92
CCCCCCCC[C@H](N)C(=O)O [compound 398]	85
COc1ccc(C[C@H](N)C(=O)O)cc1 [compound 400]	92
